Data taken from patent publication US20220274973A1, “Methods And Compositions For Treating Sickle Cell Disease With A Ferroportin Inhibitor (VIT-2763)” (Vifor (International) AG, priority 2019, published 2022).

Test: Rodent PK studies, oral dosing
Type: in vivo

systemic availability: systemically available
SMILES: O=C(NCc1ncccc1F)c1coc(CCNCCc2nc3ccccc3[nH]2)n1 [Compound 127]
